{
  "source": "patent US7998965B2",
  "about": "“Glutamate aggrecanase inhibitors” (Wyeth LLC, priority 2005, dated 2011)",
  "key": {"[1]": {"target": "T1, purified recombinant human Aggrecanase-1 (rAgg1) (Homo sapiens, UniProt O75173)", "T1 sequence (O75173 213-837)": "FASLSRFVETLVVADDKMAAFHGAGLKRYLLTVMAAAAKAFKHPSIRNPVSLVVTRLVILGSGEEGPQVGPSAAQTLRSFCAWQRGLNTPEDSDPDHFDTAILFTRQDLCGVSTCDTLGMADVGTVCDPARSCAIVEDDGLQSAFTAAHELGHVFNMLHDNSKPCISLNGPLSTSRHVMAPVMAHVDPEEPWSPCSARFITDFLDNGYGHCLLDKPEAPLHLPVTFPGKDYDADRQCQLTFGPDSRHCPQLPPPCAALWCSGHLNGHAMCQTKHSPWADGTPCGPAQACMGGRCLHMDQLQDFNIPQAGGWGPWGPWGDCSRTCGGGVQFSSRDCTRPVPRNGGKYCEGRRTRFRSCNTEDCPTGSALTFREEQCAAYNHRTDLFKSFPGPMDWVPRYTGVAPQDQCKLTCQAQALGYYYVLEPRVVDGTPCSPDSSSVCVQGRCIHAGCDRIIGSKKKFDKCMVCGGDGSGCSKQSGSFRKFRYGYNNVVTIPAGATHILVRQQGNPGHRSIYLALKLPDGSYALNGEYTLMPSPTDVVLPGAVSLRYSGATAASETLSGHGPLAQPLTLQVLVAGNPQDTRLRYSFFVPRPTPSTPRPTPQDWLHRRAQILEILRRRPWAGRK", "experiment": "In vitro fluorescence screen for Aggrecanase-1 inhibitors", "assay_type": "biochemical", "conditions": "for IC50: read-out: Agg1 IC50"}, "[2]": {"target": "T2, purified recombinant human Aggrecanase-2 (Ag2t-Phe628-Strep) (Homo sapiens, UniProt Q9UNA0)", "T2 construct": "the form used is denoted as Ag2t-Phe628-Strep (MW=41,737)", "T2 sequence (Q9UNA0 262-628)": "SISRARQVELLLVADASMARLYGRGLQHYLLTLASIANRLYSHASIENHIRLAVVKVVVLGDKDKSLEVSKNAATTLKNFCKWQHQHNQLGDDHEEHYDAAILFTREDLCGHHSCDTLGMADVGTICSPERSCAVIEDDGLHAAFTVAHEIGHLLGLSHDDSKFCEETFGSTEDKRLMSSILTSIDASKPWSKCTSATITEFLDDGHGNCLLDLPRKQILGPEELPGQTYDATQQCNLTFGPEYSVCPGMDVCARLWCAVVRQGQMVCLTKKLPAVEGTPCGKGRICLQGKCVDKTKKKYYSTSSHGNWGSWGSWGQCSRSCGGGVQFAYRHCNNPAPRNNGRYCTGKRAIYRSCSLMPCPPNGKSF", "experiment": "In vitro fluorescence screen for Aggrecanase-2 inhibitors", "assay_type": "biochemical", "conditions": "for IC50: read-out: Agg 2 IC50"}},
  "note": "Where two headings read alike, the source gives them in different places.",
  "data": [
    {"smiles": "CCC(C)(C)NC(=O)[C@H](CCC(=O)O)NC(=O)c1ccc(-c2ccccc2)cc1", "note": "[Example 8MM, N^2-(biphenyl-4-ylcarbonyl)-N^1-(1,1-dimethylpropyl)-L-α-glutamine]", "values": [
      {"measurement": "Ki", "setting": "[1]; Table 1, enzyme not given, column follows Agg1 IC50, read-out: Ki", "result": 126, "unit": "nM"},
      {"measurement": "IC50", "setting": "[1]; Table 1", "result": 58, "unit": "nM"},
      {"measurement": "IC50", "setting": "[2]; Table 1", "result": 980, "unit": "nM"}
    ]},
    {"smiles": "O=C(O)CC[C@H](NC(=O)c1ccc(-c2ccccc2)cc1)C(=O)NCCc1cccc(Br)c1", "note": "[Example 8MMM, N^2-(biphenyl-4-ylcarbonyl)-N^1-[2-(3-bromophenyl)ethyl]-L-α-glutamine]", "values": [
      {"measurement": "IC50", "setting": "[1]; Table 1", "result": 40, "unit": "nM"},
      {"measurement": "IC50", "setting": "[2]; Table 1", "result": 500, "unit": "nM"}
    ]},
    {"smiles": "CC(C)(NC(=O)[C@H](CCC(=O)O)NC(=O)c1ccc2c(c1)C(=O)c1ccccc1-2)c1ccccc1", "note": "[Example 8MMMMM, N^1-(1-methyl-1-phenylethyl)-N^2-[(9-oxo-9H-fluoren-2-yl)carbonyl]-L-α-glutamine]", "values": [
      {"measurement": "IC50", "setting": "[1]; Table 2", "result": 20000, "unit": "nM"},
      {"measurement": "IC50", "setting": "[2]; Table 2", "result": "~22000", "unit": "nM"}
    ]},
    {"smiles": "O=C(O)CC[C@H](NC(=O)c1ccc(-c2ccccc2)cc1)C(=O)N[C@H](CO)Cc1ccccc1", "note": "[Example 8MMMMMM, N-[(1S)-1-benzyl-2-hydroxyethyl]-N^2-(biphenyl-4-ylcarbonyl)-L-α-glutamine]", "values": [
      {"measurement": "IC50", "setting": "[1]; Table 2", "result": 550, "unit": "nM"},
      {"measurement": "IC50", "setting": "[2]; Table 2", "result": 5100, "unit": "nM"}
    ]},
    {"smiles": "COc1cc(CNC(=O)[C@H](CCC(=O)O)NC(=O)c2ccc(-c3ccc(CBr)cc3)cc2)cc(OC)c1OC", "note": "[Example 8MMMMMMM, N^2-{[4′-(bromomethyl)biphenyl-4-yl]carbonyl}-N-(3,4,5-trimethoxybenzyl)-L-α-glutamine]", "values": [
      {"measurement": "IC50", "setting": "[1]; Table 3", "result": 198, "unit": "nM"},
      {"measurement": "IC50", "setting": "[2]; Table 3", "result": 614, "unit": "nM"}
    ]},
    {"smiles": "CC(C)(NC(=O)[C@H](CCC(=O)O)NC(=O)C1c2ccccc2-c2ccccc21)c1ccccc1", "note": "[Example 8NNNNN, N^2-(9H-fluoren-9-ylcarbonyl)-N^1-(1-methyl-1-phenylethyl)-L-α-glutamine]", "values": [
      {"measurement": "IC50", "setting": "[1]; Table 2", "result": 1200, "unit": "nM"},
      {"measurement": "IC50", "setting": "[2]; Table 2", "result": 1890, "unit": "nM"}
    ]},
    {"smiles": "O=C(O)CC[C@H](NC(=O)c1ccc(-c2ccccc2)cc1)C(=O)NCCC(c1ccccc1)c1ccccc1", "note": "[Example 8OOO, N^2-(biphenyl-4-ylcarbonyl)-N^1-(3,3-diphenylpropyl)-L-α-glutamine]", "values": [
      {"measurement": "IC50", "setting": "[1]; Table 1", "result": 280, "unit": "nM"},
      {"measurement": "IC50", "setting": "[2]; Table 1", "result": 1000, "unit": "nM"}
    ]},
    {"smiles": "CC(C)(NC(=O)[C@H](CCC(=O)O)NC(=O)c1cccc(Oc2ccccc2)c1)c1ccccc1", "note": "[Example 8OOOOO, N^1-(1-methyl-1-phenylethyl)-N^2-(3-phenoxybenzoyl)-L-α-glutamine]", "values": [
      {"measurement": "IC50", "setting": "[1]; Table 2", "result": "> 50000", "unit": "nM"},
      {"measurement": "IC50", "setting": "[2]; Table 2", "result": "> 200000", "unit": "nM"}
    ]},
    {"smiles": "CC(C)(Cc1ccc(F)cc1)NC(=O)[C@H](CCC(=O)O)NC(=O)c1ccc(-c2ccco2)cc1", "note": "[Example 8OOOOOOO, N-[2-(4-fluorophenyl)-1,1-dimethylethyl]-N^2-[4-(2-furyl)benzoyl]-L-α-glutamine]", "values": [
      {"measurement": "IC50", "setting": "[1]; Table 3", "result": "< 30", "unit": "nM"},
      {"measurement": "IC50", "setting": "[2]; Table 3", "result": "100 to 400", "unit": "nM"}
    ]},
    {"smiles": "CC(C)(Cc1ccccc1)NC(=O)[C@H](CCC(=O)O)NC(=O)c1ccc(-c2ccccc2)s1", "note": "[Example 8OOOOOOOO, N-(1,1-dimethyl-2-phenylethyl)-N^2-[(5-phenyl-2-thienyl)carbonyl]-L-α-glutamine]", "values": [
      {"measurement": "IC50", "setting": "[1]; Table 3", "result": "< 30", "unit": "nM"},
      {"measurement": "IC50", "setting": "[2]; Table 3", "result": "200 to 600", "unit": "nM"}
    ]},
    {"smiles": "C[C@H](NC(=O)[C@H](CCC(=O)O)NC(=O)c1ccc(-c2ccccc2)cc1)c1ccccc1", "note": "[Example 8PPPPP, N^2-(biphenyl-4-ylcarbonyl)-N^1-[(1S)-1-phenylethyl]-L-α-glutamine]", "values": [
      {"measurement": "IC50", "setting": "[1]; Table 2", "result": 157, "unit": "nM"},
      {"measurement": "IC50", "setting": "[2]; Table 2", "result": 2970, "unit": "nM"}
    ]},
    {"smiles": "Cc1cccc(CNC(=O)[C@H](CCC(=O)O)NC(=O)c2ccc(-c3ccc(CO)cc3)cc2)c1", "note": "[Example 8PPPPPPP, N^2-{[4′-(hydroxymethyl)biphenyl-4-yl]carbonyl}-N-(3-methylbenzyl)-L-α-glutamine]", "values": [
      {"measurement": "IC50", "setting": "[1]; Table 3", "result": 3120, "unit": "nM"},
      {"measurement": "inhibition at 16.7 µM", "setting": "[2]; Table 3, at 16700 (nM), read-out: Agg 2 % at concentration", "result": 48, "unit": "%"}
    ]},
    {"smiles": "C[C@H](NC(=O)[C@H](CCC(=O)O)NC(=O)c1ccc2c(c1)Cc1ccccc1-2)c1ccccc1", "note": "[Example 8QQQQQ, N^2-(9H-fluoren-2-ylcarbonyl)-N^1-[(1S)-1-phenylethyl]-L-α-glutamine]", "values": [
      {"measurement": "IC50", "setting": "[1]; Table 2", "result": 108, "unit": "nM"},
      {"measurement": "IC50", "setting": "[2]; Table 2", "result": 1160, "unit": "nM"}
    ]},
    {"smiles": "CCCCCNC(=O)[C@H](CCC(=O)O)NC(=O)c1ccc(-c2ccccc2)cc1", "note": "[Example 8RRR, N^2-(biphenyl-4-ylcarbonyl)-N^1-pentyl-L-α-glutamine]", "values": [
      {"measurement": "IC50", "setting": "[1]; Table 1", "result": 82, "unit": "nM"},
      {"measurement": "IC50", "setting": "[2]; Table 1", "result": 680, "unit": "nM"}
    ]}
  ]
}
